Reference: paper PMC8391421, “Identification of Novel Positive Allosteric Modulators of Neurotrophin Receptors for the Treatment of Cognitive Dysfunction” (Cells, 2021)

Columns and labels:
Wistar rats = experiment: Novel object recognition; format: in vivo, rat; conditions: 1 mg/kg
Description: The novel object recognition model was conducted by Suven Life Sciences Ltd. (Hyderabad, India) using male Wistar rats (n = 12/group). This study was performed in compliance with the requirements and in-house animal care and usage policy of the Institutional Animal Ethics Committee (IAEC). The experiment was conducted over a 5-day period. For the first 3 days, ACD855 or vehicle were administered to the animals. On Day 4, the rats were acclimatized to their respective arenas for 20 min and then returned to their home cages for the administration of ACD855 or vehicle (1 h post habituation phase). On Day 5, the rats were administered vehicle or ACD855 1 h prior to trial, donepezil (1 mg/kg) was injected 30 min prior to trial, and scopolamine (1 mg/kg) was injected 20 min prior to trial. 20 min after scopolamine administration, the rats were subjected to the familiarization phase. The experiment was performed as described by Lueptow. The discriminative index for the drug-treated groups was compared to that of the vehicle group by use of the Kruskal–Wallis test. The discriminative index is the ratio of time spent exploring the novel object divided by the sum of the time spent exploring the novel object and a familiar object in the choice trial.

C57BL/6J mice = experiment: Passive avoidance task; format: in vivo, mouse; conditions: low doses given by themselves; physostigmine 0.025 mg/kg
Description: The passive avoidance (PA) task is an associate learning paradigm that is based on Pavlovian fear-conditioning and instrumental conditioning and conducted as previously described in male C57BL/6J mice (n = 7–8/group) from Charles River Laboratories, Sulzfeld, Germany. Vehicle or ACD855 (1, 3 or 10 mg/kg), formulated in 20% DMSO in 0.1 M sodium phosphate buffer pH 8.0, was administered daily (Days 1–4) through s.c. injections (4 mL/kg body weight). ACD856 (0.1, 0.3, 1 or 3 mg/kg) was administered by a single s.c. dose on the training day (Day 4). ACD855, ACD856, ANA-12 (0.5 mg/kg, from Sigma Aldrich, Stockholm, Sweden), physostigmine (0.025 mg/kg, from Sigma Aldrich, Stockholm, Sweden), or vehicle was administered 60 min prior to training, except for when addressing the effects on consolidation, in which case, ACD856 was dosed 5 min after the training session on day 4. Moreover, on the training day (Day 4), scopolamine or the NMDA-antagonist MK-801 (both from Sigma Aldrich, Stockholm, Sweden) at 0.3 mg/kg or vehicle was administered once s.c. 30 min prior to training. No compound was administered on the test day (Day 5), except for when addressing effects on retrieval, in which case, ACD856 was dosed 30 min prior to testing on day 5. Retention latencies and time spent in the bright compartment were determined 24 h after training (Day 5).

TrkA = biological target: T1, TrkA (Homo sapiens, UniProt P04629); experiment: TrkA PathHunter cell-based assay (U2OS-TrkA/p75)
T1 construct: host or cells: U2OS (human osteosarcoma), co-expressing p75 and SHC-1 fused to the enzyme acceptor
Description: (§1) U2OS cells were maintained subconfluent in EMEM supplemented with 10% FBS and penicillin/streptomycin/hygromycin and G418. One day prior to the experiment, 5000 cells of EMEM supplemented with 0.5% horse serum were seeded in each well of a 384-well white plate. The assay was performed as previously described. Briefly, the TrkA or TrkB cell-based PathHunter® assays use enzyme fragment complementation (EFC) technology for the complementation of two β-galactosidase (β-gal) fragments in order to study protein–protein interactions. Upon activation with ligand, TrkA or TrkB are phosphorylated on several tyrosine residues, including tyrosine 490, leading to an interaction with SHC-1. In the PathHunter® assays, the Trk-receptors are fused to an enzyme donor tag, and SHC-1 is fused to a larger part of β-gal called an enzyme acceptor. The interactions between the recombinant enzyme donor, i.e., the Trk-receptor, with an enzyme acceptor, i.e., SHC-1, leads to an active β-gal enzyme. The functional (complemented) β-gal will hydrolyze a substrate to generate a luminescence signal. The generated luminescence was read using an EnVision plate reader from PerkinElmer, Upplands Väsby, Sweden, or an ID5 plate reader from Molecular Devices, Berkshire, RG41 5TS UK. […] Min- and Max-control wells were included on each plate.
Both Toltrazuril and Ponazuril are registered veterinary products prescribed for parasitic infections in animals. […] The activation of Trk-receptors leads to an intracellular interaction between the Trk-receptor and SHC-1 and thereby to the complementation of β-gal, which will render in a functional enzyme. β-gal will hydrolyze a substrate to generate luminescence, which is proportional to the number of activated receptors.

TrkB = biological target: T2, TrkB (Homo sapiens, UniProt Q16620); experiment: TrkB PathHunter cell-based assay (U2OS-TrkB/p75)
T2 construct: host or cells: U2OS (human osteosarcoma), co-expressing p75 and SHC-1 fused to the enzyme acceptor
Description: as §1, with “each plate. A compound was considered a hit if the percent activation was more than 50% and if the value was two standard deviations higher than the mean value of all of the samples on the plate. The average activation of all of samples on 10 different 384-well plates was 31%. […] Due to the risk of adverse events with the systemic administration of TrkA agonists, the screen and the re-screen processes were designed to increase the likelihood of identifying the positive modulators of NGF-signaling rather than identifying TrkA agonists. Based on the results of the re-screen, in combination with the physical–chemical properties of the molecules, a collection of hits was used for the EC50 determinations.” for “each plate.”
Both Toltrazuril and Ponazuril are registered veterinary products prescribed for parasitic infections in animals. […] The cellular response to NGF or BDNF was measured using PathHunter® assays employing β-gal enzyme fragment complementation technology. The activation of Trk-receptors leads to an intracellular interaction between the Trk-receptor and SHC-1 and thereby to the complementation of β-gal, which will render in a functional enzyme. β-gal will hydrolyze a substrate to generate luminescence, which is proportional to the number of activated receptors. […]

[1] = test system: Shaffer collaterals-CA1 pathway, hippocampal slices; experiment: Facilitation of long-term potentiation in rat hippocampal slices; conditions: 50 ng/mL; n = 9 slices from 7 rats
Description: Male Sprague Dawley rats (4–5 weeks old) from Charles River Laboratories, Sulzfeld, Germany, were used in these experiments. Rats were deeply anesthetized using isoflurane and decapitated soon after the disappearance of the corneal reflexes. The brains were removed and placed in ice-cold standard artificial CSF (aCSF) solution (124 mM NaCl, 30 mM NaHCO3, 10 mM glucose, 1.25 mM NaH2PO4, 3.5 mM KCl, 1 mM MgCl2, 2 mM CaCl2). Hippocampal horizontal sections (400 µm thick) were prepared using a Leica VT1200S vibratome (Leica Microsystems, Kista, Sweden). Immediately after slicing, sections were transferred into an interface incubation chamber filled with standard aCSF. The chamber was held at 34 °C during the slicing period and was subsequently allowed to cool down to room temperature. […] The facilitation of long-term potentiation (LTP) was monitored in the Shaffer collaterals (SC)-CA1 pathway in the hippocampus. […] Data were normalized with respect to the mean fEPSP slope recorded during the last 10 min of the baseline period.
It has been well-described that the transient, short-term plasticity of synaptic strength induced by a weak stimulation in hippocampal slices can turn into long-term potentiation (LTP) through the exogenous application of BDNF [71, 72, 73]. […] In the control slices, the recorded potentiation decreased to the baseline level after 60 min. […]

T1 sequence (P04629 33-796): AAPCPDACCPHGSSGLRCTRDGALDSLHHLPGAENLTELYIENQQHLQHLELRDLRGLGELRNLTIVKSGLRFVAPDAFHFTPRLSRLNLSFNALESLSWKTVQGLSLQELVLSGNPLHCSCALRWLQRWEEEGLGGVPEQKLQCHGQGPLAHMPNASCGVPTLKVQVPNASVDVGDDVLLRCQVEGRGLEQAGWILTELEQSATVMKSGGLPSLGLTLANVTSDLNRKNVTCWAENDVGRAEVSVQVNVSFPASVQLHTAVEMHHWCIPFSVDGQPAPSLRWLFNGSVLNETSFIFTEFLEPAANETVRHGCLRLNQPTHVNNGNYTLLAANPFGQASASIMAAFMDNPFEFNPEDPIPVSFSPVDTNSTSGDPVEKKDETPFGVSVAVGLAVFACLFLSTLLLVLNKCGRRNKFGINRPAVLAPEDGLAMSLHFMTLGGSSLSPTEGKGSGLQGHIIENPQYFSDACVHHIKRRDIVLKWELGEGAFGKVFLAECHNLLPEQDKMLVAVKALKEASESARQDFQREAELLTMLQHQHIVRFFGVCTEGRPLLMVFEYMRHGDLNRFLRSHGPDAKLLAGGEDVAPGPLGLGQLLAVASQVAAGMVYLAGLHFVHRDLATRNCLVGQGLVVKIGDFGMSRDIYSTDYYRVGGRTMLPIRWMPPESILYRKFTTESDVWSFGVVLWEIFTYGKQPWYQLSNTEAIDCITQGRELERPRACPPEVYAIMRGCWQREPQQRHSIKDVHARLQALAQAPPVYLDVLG
T2 sequence (Q16620 32-822): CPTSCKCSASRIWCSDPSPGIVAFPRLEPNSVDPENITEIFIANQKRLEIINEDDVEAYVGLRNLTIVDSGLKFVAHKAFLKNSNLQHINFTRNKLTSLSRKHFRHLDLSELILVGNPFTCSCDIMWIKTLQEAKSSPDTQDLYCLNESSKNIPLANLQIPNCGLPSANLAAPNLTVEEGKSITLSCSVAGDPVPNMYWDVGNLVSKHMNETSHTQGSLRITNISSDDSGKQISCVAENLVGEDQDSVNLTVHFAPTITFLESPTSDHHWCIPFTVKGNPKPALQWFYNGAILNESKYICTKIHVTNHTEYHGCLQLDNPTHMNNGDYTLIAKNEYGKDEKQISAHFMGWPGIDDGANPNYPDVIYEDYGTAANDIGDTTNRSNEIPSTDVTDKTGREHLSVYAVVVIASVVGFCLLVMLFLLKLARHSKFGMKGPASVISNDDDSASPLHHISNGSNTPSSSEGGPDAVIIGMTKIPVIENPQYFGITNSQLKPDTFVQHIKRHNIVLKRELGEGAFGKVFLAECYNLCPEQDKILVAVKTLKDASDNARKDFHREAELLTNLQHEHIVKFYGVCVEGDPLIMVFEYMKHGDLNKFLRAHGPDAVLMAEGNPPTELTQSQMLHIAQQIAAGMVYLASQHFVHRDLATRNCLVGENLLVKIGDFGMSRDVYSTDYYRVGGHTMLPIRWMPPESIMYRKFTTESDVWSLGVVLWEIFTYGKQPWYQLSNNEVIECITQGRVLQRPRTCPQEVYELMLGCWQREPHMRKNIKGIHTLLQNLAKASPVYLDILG

COc1cc2c(cc1OC)C(=O)C(CC1CCN(Cc3ccccc3)CC1)C2 (centres unmarked) [Donepezil]
time with novel object vs familiar object after scopolamine (Wistar rats): spent significantly more time with the novel object

CNC(=O)Oc1ccc2c(c1)[C@]1(C)CCN(C)[C@@H]1N2C [physostigmine]
effect of low dose alone on scopolamine-induced memory impairment (C57BL/6J mice): no significant effect

N#CC(c1ccc(Cl)cc1)c1c(Cl)cc(-n2ncc(=O)[nH]c2=O)cc1Cl (centres unmarked) [Diclazuril]
activity in the TrkA assay (TrkA): not active
activity in the TrkB assay (TrkB): not active

B1: BDNF: recombinant human brain-derived neurotrophic factor (protein, UniProt P23560 19-247, looked up)
Neurotrophic factor BDNF …: APMKEANIRGQGGLAYPGVRTHGTLESVNGPKAGSRGLTSLADTFEHVIEELLDEDQKVRPNEENNKDADLYTSRVMLSSQVPLEPPLLFLLEEYKNYLDAANMSMRVRRHSDPARRGELSVCDSISEWVTAADKKTAVDMSGGTVTVLEKVPVSKGQLKQYFYETKCNPMGYTKEGCRGIDKRHWNSQCRTTQSYVRALTMDSKKRIGWRFIRIDTSCVCTLTIKRGR
long-lasting potentiation of evoked synaptic responses (fEPSP slope), fold increase [1]: 1.22 ± 0.04 fold
